The supplement of paper PMC10307832

Key:
Assay in all cases: relative viability (nuclei count vs DMSO), 5 days (fraction); higher = more cells survive
[1] = compound: CC1=CC(=NN1)NC2=CC(=NC(=N2)/C=C/C3=CC=CC=C3)N4CCN(CC4)C + CC(C)C[C@H](NC(=O)[C@H](Cc1ccccc1)NC(=O)c1cnccn1)B(O)O [Bortezomib] (partner 0.002 µM)
Outline: (§1)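 The day after seeding in 1536-well plates, lung cancer cell lines were treated by pin tool with a single drug, or with a fixed anchor-drug dose together with five library-drug doses (not always all listed) in √10 steps. After 5 days, a combined fix-and-stain solution (final 0.05% Triton X-100, 1% formaldehyde, 1 ug/ml Hoechst) was added. Nuclei counted on 4× images gave relative viability as treated counts over vehicle counts, reported as the median of duplicate plates.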

[2] = compound: COC1=CC(c2cc3ccccc3[nH]2)=N/C1=C\c1[nH]c(C)cc1C [Obatoclax] + CC(=O)Nc1cccc(-n2c(=O)n(C3CC3)c(=O)c3c(Nc4ccc(I)cc4F)n(C)c(=O)c(C)c32)c1 [Trametinib] (partner 0.02 µM)
Outline: as §1

[3] = compound: COC1=CC(c2cc3ccccc3[nH]2)=N/C1=C\c1[nH]c(C)cc1C [Obatoclax] + NC(=O)Nc1cc(-c2cccc(F)c2)sc1C(=O)N[C@H]1CCCNC1 [AZD7762] (partner 0.2 µM)
Outline: as §1

[4] = compound: COC1=CC(c2cc3ccccc3[nH]2)=N/C1=C\c1[nH]c(C)cc1C [Obatoclax] + C[C@@H](Oc1cc(-c2cnn(C3CCNCC3)c2)cnc1N)c1c(Cl)ccc(F)c1Cl [Crizotinib] (partner 1 µM)
Outline: as §1

## NCI-H3122
[1]; first compound 0.08 µM
  relative viability: 0.92
[1]; first compound 0.253 µM
  relative viability: 0.924
[1]; first compound 0.8 µM
  relative viability: 1.07
[1]; first compound 2.53 µM
  relative viability: 1.02
[1]; first compound 8 µM
  relative viability: 0.542
[2]; first compound 0.01 µM
  relative viability: 0.251
[2]; first compound 0.03162 µM
  relative viability: 0.215
[2]; first compound 0.1 µM
  relative viability: 0.241
[2]; first compound 0.3162 µM
  relative viability: 0.205
[2]; first compound 1 µM
  relative viability: 0.212
[3]; first compound 0.01 µM
  relative viability: 1.03
[3]; first compound 0.03162 µM
  relative viability: 0.962
[3]; first compound 0.1 µM
  relative viability: 0.971
[3]; first compound 0.3162 µM
  relative viability: 0.949
[3]; first compound 1 µM
  relative viability: 1
[4]; first compound 0.01 µM
  relative viability: 0.274
[4]; first compound 0.03162 µM
  relative viability: 0.28
[4]; first compound 0.1 µM
  relative viability: 0.288
[4]; first compound 0.3162 µM
  relative viability: 0.272
[4]; first compound 1 µM
  relative viability: 0.274

## PC-3 [JPC-3]
[1]; first compound 0.08 µM
  relative viability: 0.836
[1]; first compound 0.253 µM
  relative viability: 0.968
[1]; first compound 0.8 µM
  relative viability: 0.838
[1]; first compound 2.53 µM
  relative viability: 0.853
[1]; first compound 8 µM
  relative viability: 0.761
[2]; first compound 0.01 µM
  relative viability: 0.643
[2]; first compound 0.03162 µM
  relative viability: 0.71
[2]; first compound 0.1 µM
  relative viability: 0.621
[2]; first compound 0.3162 µM
  relative viability: 0.667
[2]; first compound 1 µM
  relative viability: 0.47
[3]; first compound 0.01 µM
  relative viability: 0.825
[3]; first compound 0.03162 µM
  relative viability: 0.834
[3]; first compound 0.1 µM
  relative viability: 0.808
[3]; first compound 0.3162 µM
  relative viability: 0.607
[3]; first compound 1 µM
  relative viability: 0.419
[4]; first compound 0.01 µM
  relative viability: 0.942
[4]; first compound 0.03162 µM
  relative viability: 0.892
[4]; first compound 0.1 µM
  relative viability: 0.949
[4]; first compound 0.3162 µM
  relative viability: 0.984
[4]; first compound 1 µM
  relative viability: 0.917

## PC-14
[1]; first compound 0.08 µM
  relative viability: 0.748
[1]; first compound 0.253 µM
  relative viability: 0.947
[1]; first compound 0.8 µM
  relative viability: 0.839
[1]; first compound 2.53 µM
  relative viability: 0.488
[1]; first compound 8 µM
  relative viability: 0.0557
[2]; first compound 0.01 µM
  relative viability: 0.719
[2]; first compound 0.03162 µM
  relative viability: 0.665
[2]; first compound 0.1 µM
  relative viability: 0.513
[2]; first compound 0.3162 µM
  relative viability: 0.104
[2]; first compound 1 µM
  relative viability: 0.0647
[3]; first compound 0.01 µM
  relative viability: 0.304
[3]; first compound 0.03162 µM
  relative viability: 0.328
[3]; first compound 0.1 µM
  relative viability: 0.269
[3]; first compound 0.3162 µM
  relative viability: 0.339
[3]; first compound 1 µM
  relative viability: 0.112
[4]; first compound 0.01 µM
  relative viability: 0.838
[4]; first compound 0.03162 µM
  relative viability: 0.863
[4]; first compound 0.1 µM
  relative viability: 0.811
[4]; first compound 0.3162 µM
  relative viability: 0.9
[4]; first compound 1 µM
  relative viability: 0.54

## RERF-LC-KJ
[1]; first compound 0.08 µM
  relative viability: 1.09
[1]; first compound 0.253 µM
  relative viability: 1.16
[1]; first compound 0.8 µM
  relative viability: 1.12
[1]; first compound 2.53 µM
  relative viability: 0.748
[1]; first compound 8 µM
  relative viability: 0.381
[2]; first compound 0.01 µM
  relative viability: 0.888
[2]; first compound 0.03162 µM
  relative viability: 0.834
[2]; first compound 0.1 µM
  relative viability: 0.835
[2]; first compound 0.3162 µM
  relative viability: 0.869
[2]; first compound 1 µM
  relative viability: 0.769
[3]; first compound 0.01 µM
  relative viability: 1.04
[3]; first compound 0.03162 µM
  relative viability: 0.914
[3]; first compound 0.1 µM
  relative viability: 0.732
[3]; first compound 0.3162 µM
  relative viability: 0.838
[3]; first compound 1 µM
  relative viability: 0.923
[4]; first compound 0.01 µM
  relative viability: 0.739
[4]; first compound 0.03162 µM
  relative viability: 0.821
[4]; first compound 0.1 µM
  relative viability: 0.804
[4]; first compound 0.3162 µM
  relative viability: 0.794
[4]; first compound 1 µM
  relative viability: 0.749
